Patent publication US10800791B2, “Triazole ACC inhibitors and uses thereof” (Gilead Apollo, LLC, priority 2015, dated 2020)
≈ marks a conversion by molar mass, not a printed value. Like-named read-outs stand apart in the source and are kept apart here.

What was measured:
[1] = test system: Fusarium moniliforme (Fm); experiment: Growth inhibition assay of fungal pathogens, Fm; format: cell-based; settings: Fusarium verticillioides, 48 h, Fusarium moniliforme, read-out: Concentration at 90% Inhibition Fm
Summary of the method: (§1)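 Percent inhibition derived at 48 hours from OD600 and visual scores versus 2% DMSO control, with media+DMSO blank as background. Spore inocula in 17% V8 medium were sized from 48 h growth curves; compounds tested at final 50/10/2 or 2/0.4/0.08 ppm.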

[2] = biological target: human (hACC2) (Homo sapiens, UniProt O00763); experiment: In vitro ACC inhibition assay (ADP-Glo), hACC2; format: biochemical; settings: 5 nM ACC2, 20 μM ATP, 20 μM acetyl-CoA
Procedure: The detailed procedure is as follows. […] 10 μL ADP glo reagent was added. […] 20 μL kinase detection reagent was added.

[3] = test system: Septoria tritici (St); experiment: Growth inhibition assay of fungal pathogens, St; format: cell-based; settings: Zymoseptoria tritici, 48 h, Septoria tritici, read-out: Concentration at 90% Inhibition St
Summary of the method: as §1

[4] = test system: Diplodia maydis (Dm); experiment: Growth inhibition assay of fungal pathogens, Dm; format: cell-based; settings: Stenocarpella maydis, 48 h, Diplodia maydis, read-out: Concentration at 90% Inhibition Dm
Summary of the method: as §1

[5] = test system: Fusarium virguliforme (Fv); experiment: Growth inhibition assay of fungal pathogens, Fv; format: cell-based; settings: 48 h, read-out: Concentration at 90% Inhibition Fv
Summary of the method: as §1

[6] = test system: Phytophthora capsici (Pc); experiment: Growth inhibition assay of fungal pathogens, Pc; format: cell-based; settings: 48 h, read-out: Concentration at 90% Inhibition Pc
Summary of the method: as §1

[7] = biological target: fungal (fACC2) (UniProt Q00955); settings: read-out: fACC2 (in vitro ACC2 Inhibition Assay, IC50), ADP-Glo, 5 nM ACC2, 20 μM ATP, 20 μM acetyl-CoA
[8] = test system: Rhizoctonia solani (Rs); experiment: Growth inhibition assay of fungal pathogens, Rs; format: cell-based; settings: 48 h, mycelial plugs, read-out: Concentration at 90% Inhibition Rs
[9] = test system: C. parapsilosis; experiment: Antifungal Activity Assay (broth microtiter MIC), C. parapsilosis; format: cell-based, Candida parapsilosis; settings: Lodderomyces parapsilosis, ATCC22019, 48 h, ATCC 22019, 3 replicates, MIC recorded at 48 h, read-out: MIC, C. parapsilosis ATCC 22019
Summary of the method: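 Endpoint: lowest concentration visibly inhibiting growth relative to control after 48 h. Inoculum of 2.5×10^3 CFU/mL final in RPMI 1640+MOPS, prepared from overnight 35° C agar cultures; test compounds diluted in water to 128 μg/mL before plating.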

[10] = test system: Collectotrichum graminicola (Cg); experiment: Growth inhibition assay of fungal pathogens, Cg; format: cell-based; settings: 48 h, Collectotrichum graminicola, read-out: Concentration at 90% Inhibition Cg
Summary of the method: as §1

[11] = growth inhibition at 48 hours vs 2% DMSO control
[12] = growth inhibition vs 2% DMSO control at 48 hours

human (hACC2), sequence (O00763 whole entry): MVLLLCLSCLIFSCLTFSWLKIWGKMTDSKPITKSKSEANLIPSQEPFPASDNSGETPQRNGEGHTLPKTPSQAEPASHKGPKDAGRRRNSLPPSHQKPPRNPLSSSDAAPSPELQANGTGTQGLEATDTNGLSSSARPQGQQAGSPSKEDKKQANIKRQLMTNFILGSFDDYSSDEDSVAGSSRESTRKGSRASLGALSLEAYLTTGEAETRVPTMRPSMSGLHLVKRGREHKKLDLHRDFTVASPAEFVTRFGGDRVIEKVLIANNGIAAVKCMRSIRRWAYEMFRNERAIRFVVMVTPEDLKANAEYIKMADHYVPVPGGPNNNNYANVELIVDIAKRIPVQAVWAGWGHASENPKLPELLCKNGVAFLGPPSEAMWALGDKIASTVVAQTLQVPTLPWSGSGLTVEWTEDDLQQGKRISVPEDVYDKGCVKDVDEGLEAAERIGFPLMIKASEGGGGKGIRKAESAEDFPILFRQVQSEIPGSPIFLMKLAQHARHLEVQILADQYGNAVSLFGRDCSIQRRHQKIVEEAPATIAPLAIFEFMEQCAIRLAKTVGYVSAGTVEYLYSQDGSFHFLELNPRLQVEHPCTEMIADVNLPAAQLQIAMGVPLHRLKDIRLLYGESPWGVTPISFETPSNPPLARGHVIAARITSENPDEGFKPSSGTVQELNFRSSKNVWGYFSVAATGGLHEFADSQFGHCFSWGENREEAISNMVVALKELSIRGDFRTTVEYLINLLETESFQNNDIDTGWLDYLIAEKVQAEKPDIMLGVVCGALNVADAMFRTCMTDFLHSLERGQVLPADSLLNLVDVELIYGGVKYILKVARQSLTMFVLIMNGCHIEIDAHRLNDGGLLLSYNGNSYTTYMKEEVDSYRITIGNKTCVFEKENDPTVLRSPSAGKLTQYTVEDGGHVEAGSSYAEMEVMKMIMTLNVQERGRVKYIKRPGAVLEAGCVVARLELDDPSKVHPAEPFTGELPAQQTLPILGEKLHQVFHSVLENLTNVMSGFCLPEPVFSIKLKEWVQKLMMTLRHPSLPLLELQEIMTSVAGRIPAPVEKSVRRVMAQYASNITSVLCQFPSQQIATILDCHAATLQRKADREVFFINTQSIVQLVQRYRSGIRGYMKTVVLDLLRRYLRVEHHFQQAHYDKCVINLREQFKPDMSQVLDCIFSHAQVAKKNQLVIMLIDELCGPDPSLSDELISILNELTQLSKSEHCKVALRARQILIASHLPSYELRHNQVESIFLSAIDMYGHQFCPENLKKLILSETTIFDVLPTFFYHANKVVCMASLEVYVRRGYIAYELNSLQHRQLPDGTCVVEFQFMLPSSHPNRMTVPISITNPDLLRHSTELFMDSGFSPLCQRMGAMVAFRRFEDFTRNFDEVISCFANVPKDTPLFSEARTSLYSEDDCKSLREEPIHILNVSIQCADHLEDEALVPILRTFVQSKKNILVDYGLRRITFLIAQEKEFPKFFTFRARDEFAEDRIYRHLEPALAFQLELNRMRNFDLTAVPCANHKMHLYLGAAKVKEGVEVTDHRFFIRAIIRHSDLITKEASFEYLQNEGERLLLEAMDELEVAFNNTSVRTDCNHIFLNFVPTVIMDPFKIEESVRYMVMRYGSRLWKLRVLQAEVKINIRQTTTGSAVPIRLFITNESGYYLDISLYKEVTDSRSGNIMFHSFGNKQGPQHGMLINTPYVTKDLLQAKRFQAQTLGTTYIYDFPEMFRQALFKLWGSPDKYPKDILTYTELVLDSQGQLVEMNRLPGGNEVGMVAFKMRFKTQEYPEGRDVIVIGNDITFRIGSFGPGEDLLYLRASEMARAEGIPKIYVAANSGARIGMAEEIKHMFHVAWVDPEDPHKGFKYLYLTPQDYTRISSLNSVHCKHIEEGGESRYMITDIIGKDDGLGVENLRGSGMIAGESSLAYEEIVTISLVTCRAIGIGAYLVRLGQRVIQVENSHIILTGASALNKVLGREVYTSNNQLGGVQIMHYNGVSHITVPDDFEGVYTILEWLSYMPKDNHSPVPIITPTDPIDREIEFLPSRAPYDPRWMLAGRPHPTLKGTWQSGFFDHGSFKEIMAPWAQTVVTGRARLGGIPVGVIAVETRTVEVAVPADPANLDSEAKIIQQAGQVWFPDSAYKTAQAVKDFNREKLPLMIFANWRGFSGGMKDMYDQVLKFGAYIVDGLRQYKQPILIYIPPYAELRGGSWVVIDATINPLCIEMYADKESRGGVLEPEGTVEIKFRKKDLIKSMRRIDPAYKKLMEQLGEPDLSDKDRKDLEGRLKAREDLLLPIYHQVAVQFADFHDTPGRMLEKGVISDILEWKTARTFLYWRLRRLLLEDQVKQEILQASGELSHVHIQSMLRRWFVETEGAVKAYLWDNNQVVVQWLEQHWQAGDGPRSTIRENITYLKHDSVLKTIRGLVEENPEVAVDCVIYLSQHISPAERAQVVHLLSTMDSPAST
fungal (fACC2), sequence (Q00955 whole entry): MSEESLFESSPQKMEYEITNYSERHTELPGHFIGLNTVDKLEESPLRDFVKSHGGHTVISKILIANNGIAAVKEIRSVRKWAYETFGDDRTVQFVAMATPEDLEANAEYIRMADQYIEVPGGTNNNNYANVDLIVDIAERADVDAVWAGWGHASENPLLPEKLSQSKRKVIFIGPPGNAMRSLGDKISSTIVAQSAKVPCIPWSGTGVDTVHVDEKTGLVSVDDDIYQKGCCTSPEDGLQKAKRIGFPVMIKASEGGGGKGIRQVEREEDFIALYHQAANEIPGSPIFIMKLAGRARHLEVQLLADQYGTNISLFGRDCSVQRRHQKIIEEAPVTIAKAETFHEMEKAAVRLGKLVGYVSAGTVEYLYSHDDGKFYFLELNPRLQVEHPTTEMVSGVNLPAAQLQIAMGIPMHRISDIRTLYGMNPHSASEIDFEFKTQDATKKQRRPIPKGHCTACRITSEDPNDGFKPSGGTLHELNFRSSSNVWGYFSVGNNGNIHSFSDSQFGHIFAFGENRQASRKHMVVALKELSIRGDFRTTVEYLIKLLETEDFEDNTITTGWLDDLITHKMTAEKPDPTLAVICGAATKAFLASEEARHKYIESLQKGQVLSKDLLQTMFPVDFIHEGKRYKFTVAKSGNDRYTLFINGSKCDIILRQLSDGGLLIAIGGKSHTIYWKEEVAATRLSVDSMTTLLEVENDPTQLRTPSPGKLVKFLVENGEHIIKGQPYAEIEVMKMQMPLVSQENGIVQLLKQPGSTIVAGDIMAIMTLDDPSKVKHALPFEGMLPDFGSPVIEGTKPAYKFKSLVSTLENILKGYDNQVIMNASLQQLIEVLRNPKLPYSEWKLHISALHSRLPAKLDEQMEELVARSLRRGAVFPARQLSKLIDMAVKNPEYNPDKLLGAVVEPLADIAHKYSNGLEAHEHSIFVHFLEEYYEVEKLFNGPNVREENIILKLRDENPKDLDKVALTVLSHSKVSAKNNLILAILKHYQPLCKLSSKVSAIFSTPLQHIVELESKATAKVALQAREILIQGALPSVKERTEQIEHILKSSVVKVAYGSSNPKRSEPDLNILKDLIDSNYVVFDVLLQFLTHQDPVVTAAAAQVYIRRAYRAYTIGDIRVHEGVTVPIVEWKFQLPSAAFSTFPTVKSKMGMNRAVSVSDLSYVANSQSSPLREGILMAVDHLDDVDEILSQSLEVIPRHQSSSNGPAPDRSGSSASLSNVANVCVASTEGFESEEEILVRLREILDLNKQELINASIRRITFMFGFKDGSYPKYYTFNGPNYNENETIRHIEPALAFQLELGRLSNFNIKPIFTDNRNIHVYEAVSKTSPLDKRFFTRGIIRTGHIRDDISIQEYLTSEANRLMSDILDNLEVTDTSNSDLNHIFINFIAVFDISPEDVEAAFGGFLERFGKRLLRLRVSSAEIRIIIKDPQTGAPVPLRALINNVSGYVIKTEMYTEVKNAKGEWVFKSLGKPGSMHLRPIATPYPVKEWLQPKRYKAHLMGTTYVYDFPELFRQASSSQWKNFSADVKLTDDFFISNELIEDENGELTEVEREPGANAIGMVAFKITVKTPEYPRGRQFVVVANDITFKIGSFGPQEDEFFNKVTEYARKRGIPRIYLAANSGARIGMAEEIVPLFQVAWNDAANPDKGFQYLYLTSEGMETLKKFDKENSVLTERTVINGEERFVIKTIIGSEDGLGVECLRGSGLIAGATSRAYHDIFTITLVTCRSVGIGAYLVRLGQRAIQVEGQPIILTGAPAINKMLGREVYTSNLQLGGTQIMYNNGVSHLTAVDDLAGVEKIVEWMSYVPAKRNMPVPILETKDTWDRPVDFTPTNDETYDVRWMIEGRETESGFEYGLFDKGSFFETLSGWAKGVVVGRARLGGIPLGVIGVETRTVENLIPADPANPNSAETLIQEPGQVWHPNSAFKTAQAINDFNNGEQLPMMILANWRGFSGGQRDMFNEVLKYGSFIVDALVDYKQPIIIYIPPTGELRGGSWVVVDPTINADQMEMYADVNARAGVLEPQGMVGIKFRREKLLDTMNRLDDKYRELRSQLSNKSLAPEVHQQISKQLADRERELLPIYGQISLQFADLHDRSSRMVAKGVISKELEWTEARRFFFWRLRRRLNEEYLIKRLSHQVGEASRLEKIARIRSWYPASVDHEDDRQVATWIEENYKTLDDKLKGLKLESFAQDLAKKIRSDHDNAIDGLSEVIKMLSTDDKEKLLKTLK

Q: What does the source list for COc1ccc(F)cc1[C@H](Cn1c(=O)n(C(C)(C)C(=O)N2CCCC2)c(=O)c2c(C)c(-n3nccn3)sc21)OC(C)C [Compound I-7, (R)-1-(2-(5-fluoro-2-methoxyphenyl)-2-isopropoxyethyl)-5-methyl-3-(2-methyl-1-oxo-1-(pyrrolidin-1-yl)propan-2-yl)-6-(2H-1,2,3-triazol-2-yl)thieno[2,3-d]pyrimidine-2,4(1H,3H)-dione]?
A: IC90 [1, 11]: 0.08 µg/mL (≈ 0.134 µM); IC90 [1, 12]: 0.08 µg/mL (≈ 0.134 µM); IC50 ([2]; Table 2a): 5 to 10 nM; IC50 ([2]; Table 2b, additional results): 5 to 10 nM; IC90 [3, 11]: 10 µg/mL (≈ 16.7 µM); IC90 [3, 12]: > 50 µg/mL; IC90 [4, 11]: 0.08 µg/mL (≈ 0.134 µM); IC90 [4, 12]: 0.08 µg/mL (≈ 0.134 µM); IC90 [5, 11]: 0.08 µg/mL (≈ 0.134 µM); IC90 [5, 12]: 0.08 µg/mL (≈ 0.134 µM); IC90 [6, 11]: > 50 µg/mL; IC90 [6, 12]: > 50 µg/mL; IC50 ([7]; Table 2a): 1 to 5 nM; IC50 ([7]; Table 2b, additional results): 1 to 5 nM; IC90 [8, 11]: 0.08 µg/mL (≈ 0.134 µM); IC90 [8, 12]: 0.08 µg/mL (≈ 0.134 µM); MIC ([9]; Table 3a): 1.1 to 2 µg/mL (≈ 1.84 to 3.34 µM); MIC ([9]; Table 3b (additional results)): 1.01 to 2 µg/mL (≈ 1.69 to 3.34 µM); IC90 [10, 11]: 0.08 µg/mL (≈ 0.134 µM); IC90 [10, 12]: 0.08 µg/mL (≈ 0.134 µM)

Q: Which results are given for COc1ccc(F)cc1[C@H](Cn1c(=O)n(C(C)(C)C(=O)NC2CCC2)c(=O)c2c(C)c(-n3nccn3)sc21)OC1CCOCC1 [Compound I-27, (R)—N-cyclobutyl-2-(1-(2-(5-fluoro-2-methoxyphenyl)-2-((tetrahydro-2H-pyran-4-yl)oxy)ethyl)-5-methyl-2,4-dioxo-6-(2H-1,2,3-triazol-2-yl)-1,4-dihydrothieno[2,3-d]pyrimidin-3(2H)-yl)-2-methylpropanamide]?
A: IC90 [1, 11]: 0.08 µg/mL (≈ 0.125 µM); IC90 [1, 12]: 0.08 µg/mL (≈ 0.125 µM); IC50 ([2]; Table 2a): 5 to 10 nM; IC50 ([2]; Table 2b, additional results): 5 to 10 nM; IC90 [3, 11]: 2 µg/mL (≈ 3.12 µM); IC90 [3, 12]: 10 µg/mL (≈ 15.6 µM); IC90 [4, 11]: 0.4 µg/mL (≈ 0.624 µM); IC90 [4, 12]: 0.4 µg/mL (≈ 0.624 µM); IC90 [5, 11]: 0.4 µg/mL (≈ 0.624 µM); IC90 [5, 12]: 0.4 µg/mL (≈ 0.624 µM); IC90 [6, 11]: 10 µg/mL (≈ 15.6 µM); IC90 [6, 12]: > 50 µg/mL; IC50 ([7]; Table 2a): 1 to 5 nM; IC50 ([7]; Table 2b, additional results): 1 to 5 nM; IC90 [8, 11]: 0.08 µg/mL (≈ 0.125 µM); IC90 [8, 12]: 0.08 µg/mL (≈ 0.125 µM); MIC ([9]; Table 3a): 0.25 to 1 µg/mL (≈ 0.39 to 1.56 µM); MIC ([9]; Table 3b (additional results)): 0.25 to 1 µg/mL (≈ 0.39 to 1.56 µM); IC90 [10, 11]: 0.4 µg/mL (≈ 0.624 µM); IC90 [10, 12]: 0.4 µg/mL (≈ 0.624 µM)
